We go through 3 compounds from patent publication US5425935A, “Imaging of infections” (British Technology Group Limited, priority 1991, dated 1995).

Data set [1] relates to Staphylococcus aureus (SA). As to the kind of experiment: Take up of Tc-99m complexes by Staphylococcus aureus (SA), percentage radionuclide retained. The format is cell-based. The conditions noted are these: for percent radionuclide retained in the microorganism: 4 hours' incubation, purified complexes.
Data set [2] has as its system Pseudomonas aboubinoba (PA). As to the kind of experiment: Take up of Tc-99m complexes by Pseudomonas aboubinoba (PA), percentage radionuclide retained. In kind it is cell-based. Conditions: for percent radionuclide retained in the microorganism: 4 hours' incubation, purified complexes.
The subject of the next data set is Escherichia coli (EC). As to the kind of experiment: Take up of Tc-99m complexes by Escherichia coli (EC), percentage radionuclide retained. In kind it is cell-based. The conditions noted are these: for percent radionuclide retained in the microorganism: 4 hours' incubation, purified complexes.
Data set [3] in a line: Extent of complexation with Tc-99m prior to purification. In kind it is physicochemical. As for the experimental part:
A further sample of Tc-99m-CIP complex was obtained as generally described in Example 1. Samples of Tc-99m complexed ofloxacin (obtained in powder form from Hoechst) and norfloxacin (obtained in powder form from Merck Sharpe & Dohme) were obtained as described for ciprofloxacin. Prior to purification, it was determined that the extent of complexation percent was as follows: […]

Setting [4] is: 2 hr. incubation, not further purified.
Setting [5] is: 4 hr. incubation, not further purified.
The mark [6] stands for this setting: 21 hr. incubation, CIP not further purified.

Structures are written as SMILES.

`CCn1cc(C(=O)O)c(=O)c2cc(F)c(N3CCNCC3)cc21` [norfloxacin]: the “percent radionuclide retained in the microorganism” value (“percent radionuclide retained” below) is 37.86% in data set [1], 44.53% in data set [2] and 48.28% in the data set on Escherichia coli (EC). Besides, the “extent of complexation percent” value in data set [3] turned out to be 76.5%.
On to `O=C(O)c1cn(C2CC2)c2cc(N3CCNCC3)c(F)cc2c1=O` [Tc-99m-ciprofloxacin, metal not drawn], for which the “percentage radionuclide retained in the microorganisms” value in data set [1] (setting [4]) is 17.24 percentage; in data set [1] (setting [5]), 14.63 percentage; in data set [1] (setting [6]) it was 15.08 percentage; in data set [2] (setting [4]) it was 24.14 percentage; in data set [2] (setting [5]) it was 16.67 percentage; in data set [2] (setting [6]), 21.32 percentage. Moreover, the entries for the “percentage radionuclide retained in the microorganisms” value in the data set with Escherichia coli (EC) (setting [4]), with Escherichia coli (EC) (setting [5]) and with Escherichia coli (EC) (setting [6]) were 15.78 percentage, 11.72 percentage and 12.90 percentage, respectively. In addition, the figures for the “percent radionuclide retained” value (in data set [1]; in data set [2]; in the data set on Escherichia coli (EC)) were 58.47%, 50.20% and 43.89%, respectively. Further, in data set [3], the “extent of complexation percent” value was found to be 51.7%.
On to `CC1COc2c(N3CCN(C)CC3)c(F)cc3c(=O)c(C(=O)O)cn1c23` (stereo not drawn) [ofloxacin], for which the “percent radionuclide retained” value in data set [1] is given as 76.94%; in data set [2] it was 79.39%; with Escherichia coli (EC), 77.95%. Also, in data set [3], the “extent of complexation percent” value is reported as 88.5%.
